Measurements published in US20230322854A1, “HUNTINGTIN-RELATED PEPTIDE AGENTS AND USES THEREOF” (UNIVERSITY OF SOUTHERN CALIFORNIA, priority 2020, published 2023).
“Also recorded” adds a separate entry of the source. No end group written: not given here.

What was measured:
[1] = Radioactive binding assay, beads without target (no target control); conditions: radiolabeled peptide
Method: (§1) The binding of the peptide library was determined using a radioactive binding assay. In this assay, peptides were radiolabeled by translating the mRNA coding for these peptides in the presence of ^35S-methionine using rabbit reticulocyte lysate (Jackson, et al. (1983) Methods Enzymol 96: 50-74). These peptides were translated in an mRNA display format and were thus linked to their encoding mRNA, as described above. After purification by dT chromatography, the radiolabeled peptides were incubated with Huntingtin fibrils immobilized on Neutravidin Agarose or Streptavidin Ultralink beads. The beads were then filtered through a Spin X column (Corning) to separate the supernatant and beads, then washed to remove unbound sequences. The supernatant, washes, and beads were all counted in a scintillation counter to determine the counts in each sample. The percent bound was determined by dividing the counts on the beads with the total counts (beads+washes+supernatant).

[2] = tested on: unbundled Huntingtin fibrils (exon 1); assay: Radioactive binding assay, immobilized unbundled Huntingtin fibrils; conditions: for binding to Htt-fibrils: radiolabeled mRNA-peptide fusions, fibrils immobilized on beads
Source text: Messenger RNA (mRNA) display (described in (Roberts, et al. (1997) Proc Natl Acad Sci USA 94: 12297-302, Takahashi, et al. (2003) Trends Biochem Sci 28: 159-65); FIG. 2) was used to engineer peptide agents that bind to unbundled fibrils of Huntingtin exon 1. To do this, unbundled Huntingtin fibrils were generated by mixing biotinylated Huntingtin protein (exon 1; FIG. 1) with non-biotinylated exon 1 Huntingtin protein at a ratio of 1:20 (˜5% biotinylated Huntingtin). These fibrils were then immobilized on Neutravidin agarose (Thermo Fisher) or Streptavidin ultralink beads (Thermo Fisher) via the attached biotin. A MX9 (where X is any of the 20 natural amino acids) mRNA display library was generated using published procedures (Takahashi, et al. (2009) Methods Mol Biol 535: 293-314) and incubated with immobilized fibrils. Non-binding sequences were washed away and the remaining fibril binding peptides were amplified via RT-PCR. This process was repeated seven times.
as §1

[3] = tested on: monomeric Huntingtin; assay: Radioactive binding assay, monomeric Huntingtin; conditions: radiolabeled peptide
Method: as §1
HD1 through HD4 were also tested for binding to monomeric Huntingtin (FIG. 5).
(§2) HD1 and HD8 were also tested for binding specificity. Radiolabeled HD1 and HD8 were incubated with monomeric Huntingtin, unbundled Htt-fibrils, or α-Synuclein fibrils (α-Synuclein is another protein known to aggregate and form fibrils).

[4] = tested on: Huntingtin protein; assay: In vitro Huntingtin aggregation assay imaged by electron microscopy; type: biochemical; conditions: synthetic peptide, 6 days
Method: Synthetic HD1 and HD8 were also tested for their ability to inhibit fibril formation in an in vitro Huntingtin aggregation assay. In this assay, Huntingtin protein aggregated over a period of 6 days, forming fibrils that could be imaged using electron microscopy (FIG. 8; Controls).

[5] = biological target: α-Synuclein fibrils (Homo sapiens, UniProt P37840); assay: Radioactive binding assay, α-Synuclein fibrils; conditions: radiolabeled peptide
Method: as §1, §2

[6] = biological target: T1, Huntingtin Exon 1 Q39 (Homo sapiens, UniProt P42858, DUP21-38); assay: Co-localization of Alexa 488-labeled peptide with Httex1 Q39-RFP in fixed N2A cells; type: cell-based, mouse; conditions: fixed N2A cells transfected with Httex1 Q39-RFP
T1 construct: expressing Huntingtin Exon 1 Q39 (mutant Huntingtin with 39 CAG repeats) fused to red fluorescent protein (tagRFP); expressed in transfected cells; host or cells: N2A (mouse neuroblastoma cell line)
T1 sequence (P42858 with tags, fused parts or gaps DUP21-38): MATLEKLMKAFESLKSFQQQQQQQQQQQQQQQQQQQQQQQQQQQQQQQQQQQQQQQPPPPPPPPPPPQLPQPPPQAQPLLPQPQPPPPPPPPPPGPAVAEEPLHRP
Method: In these experiments, N2A cells (mouse neuroblastoma cell line) were transfected with Httex1 Q39 fused with RFP (middle column). Cells were fixed and stained for HD 1 or HD 8 with Alexa 488 (left column). Co-localization of HD1/HD8 with Httex1 aggregates is shown in the merged image (co-localization observed in cells is indicated by white arrows). The “CTRL” rows show the non-transfected cells, which were treated with 5 times more peptide to confirm the localization was not due to aggregations of peptides or off-target binding occurring in the cell.
HD1 and HD8 were also tested to see if the synthetic peptide recognized Huntingtin fibrils from cells. In this assay, HD1 and HD8 are were labeled with the fluorescent dye, Alexa 488 and were incubated with fixed N2A cells (a mouse neuroblastoma cell line) that were expressing Huntingtin Exon 1 Q39 (mutant Huntingtin with 39 CAG repeats) fused to red fluorescent protein (tagRFP). In control experiments, with no Huntingtin exon 1 (Q39)-RFP fusion (Httex1 Q39) transfected, a diffuse signal is observed with HD1 and HD8 peptides (FIG. 11; Controls).

[7] = tested on: Htt-fibrils; assay: EPR of spin-labeled peptide binding to Htt-fibrils; conditions: spin-labeled synthetic peptide
Method: FIG. 10 presents graphs showing testing binding of chemically synthesized HD1 or HD8 using Electron Paramagnetic Resonance (EPR). […] Panel B is a graph showing the results of experiments aimed at the determination of the stoichiometry of peptides binding to Httex1 molecules in the fibril, in which a spin-labeled peptide (HD1 or HD8) is added to 15 μM fibrils.
HD1 and HD8 binding was analyzed by electron paramagnetic resonance (EPR). The synthetic peptides were spin labeled using a free Cys at the C-terminus of the peptides. […] The stoichiometry of the complex was also studied using EPR, with varying amounts of peptide added to fibrils (FIG. 10, panel B).

[8] = tested on: Htt-fibrils; assay: Competition binding of synthetic peptide against radiolabeled peptide on immobilized fibrils; conditions: competitor = synthetic peptide in DMSO, 3.2 Fibril; for binding of radiolabeled HD8 to Htt-fibrils on addition of synthetic peptide: not to the same extent as with radiolabeled HD1
Method: Radiolabeled HD1 or HD8 were bound to immobilized fibrils and the appropriate compound was tested in a competition binding assay. From left to right and for each dataset shown on the graph (i.e., “HD1” and “HD8”), the bars represent “No Target+DMSO”, “No Target+HD1”, “No Target+HD8”, “3.2 Fibril+DMSO”, “3.2 Fibril+HD1”, and “3.2 Fibril+HD8”.
HD1 and HD8 were chemically synthesized and purified by reverse-phase HPLC and resuspended in DMSO. In order to verify that these synthetic peptides were functional for binding, we designed a competition experiment. We radiolabeled HD1 and HD8 above then tested to see if synthetic HD1 or HD8 would compete and reduce binding of the radiolabeled peptides. […] Binding to Htt-fibrils (3.2 Fibril+DMSO) was reduced by the addition of synthetic HD1 (3.2 Fibril+HD1) or by addition of synthetic HD8 (3.2 Fibril+HD8).

[9] = biological target: unbundled fibrils of Huntingtin exon 1 (about 5% biotinylated), immobilized on beads (UniProt P42858); assay: radioactive binding assay, fibrils immobilised on beads
[10] = tested on: Httex1 aggregates; assay: Labeling of Httex1 aggregates in retinal sections of Huntington mouse models; conditions: 34-week-old R6/1 mice, 0.1 micromolar
Source text: FIG. 28 presents fluorescence microscopy pictures showing that HD8-Alexa488 labels aggregated Httex1 in retina sections from two different mouse model of Huntington disease. Left panels show nuclear stain that labels all cells. Right panels show signal from HD8-Alexa488. Top panels show a retinal section from a R6/1 mouse, and bottom panels show a retinal section from a zQ175KI mouse.
Left panels show nuclear stain that labels all cells (A1 and B1), and right panels show signal from HD8-SP10-HD1-fluorescein (A2 and B2). Top panels are higher magnification that show the ganglion cell layer of the retina, and the bottom panels are lower magnification micrographs that show all retinal layers. Labeling of all retinal layers is seen when the HD peptides are dimerized. The phase contrast panel to the left of the bottom panels show the corresponding retinal layers: ONL: outer nuclear layer that contain rod and cone photoreceptor cells, INL: inner nuclear layer that contains cell bodies from horizontal cells, bipolar cells, amacrine cells and Müller cells, GCL: ganglion cell layer.
To see whether HD peptides bind Httex1 aggregates formed in vivo, we used tissues from two different Huntington mouse models, R6/1 (34 weeks old) and zQ175KI (48 weeks). FIG. 28 show retinal sections from these mice incubated with 2 micromolar of HD8 conjugated with Alexa488 at its carboxyl terminus.
HD8-HD1-fluorescein (0.1 micromolar) was also used on retinal sections from 34-week-old R6/1 mice (FIG. 29). […] In addition, weaker signal from intranuclear aggregates was also observed. Further, the signal can now be detected in all layers of the retina where the nuclei reside.

[11] = tested on: Httex1 aggregates; assay: Labeling of Httex1 aggregates in brain sections of R6/1 mice; design: species or system mouse; conditions: R6/1 mice (34 weeks) versus age-matched control
Source text: Brain sections from age-matched littermate control and R6/1 mouse are shown in this figure.
HD8-HD1-fluorescein was also used on brain sections from R6/1 mice (34 weeks).

[12] = biological target: T2, Httex1Q72 aggregates (Homo sapiens, UniProt P42858, INS38QQQQQQQQQQQQQQQQQQQQQQQQQQQQQQQQQQQQQQQQQQQQQQQQQQQ); assay: Labeling of Httex1Q72 aggregates in fixed transfected HEK293 cells; type: cell-based; conditions: fixed cells 24 h after transfection, 0.1 micromolar peptide overnight
T2 construct: Httex1Q72 (without RFP) was transfected into HEK293 cells; expressed in transfected cells
T2 sequence (P42858 with tags, fused parts or gaps limits assumed, stated change not applied): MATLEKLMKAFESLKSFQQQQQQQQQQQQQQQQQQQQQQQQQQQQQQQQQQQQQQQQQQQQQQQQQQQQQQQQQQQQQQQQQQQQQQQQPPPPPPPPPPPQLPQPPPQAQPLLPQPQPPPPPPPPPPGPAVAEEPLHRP
Source text: Left panels show fluorescent images (top left panel: nuclear stain to visualize all cells; middle left panel: fluorescein signal arising from the HD8-SP10-HD1-fluorescein peptide; bottom left panel: antibody against fluorescein to further amplify fluorescein signal). Right panels show phase contrast image of the same field. Arrows point to cytoplasmic aggregates that could be visualized with fluorescent signals or under phase contrast. Asterisks mark intranuclear aggregates that were labeled with HD8-SP10-HD1-fluorescein but not anti-fluorescein antibody.
Next, we tested the ability of HD peptides to bind Httex1 aggregates formed in cultured cells. To do this, Httex1Q72 (without RFP) was transfected into HEK293 cells. […] The antibody labeled the rim of the cytoplasmic aggregates and the signal also surrounded some cell nuclei. Little antibody staining was observed on intranuclear aggregates.

[13] = listed as HD8-SP10-HD1-fluorescein

Row | Substance | binding to beads without target [1] | binding to Htt-fibrils [2] | binding to monomeric Huntingtin [3] | inhibition of fibril formation [4] | binding to α-Synuclein fibrils [5] | colocalization of Alexa 488 signal and RFP signal [6] | EPR central line amplitude upon addition of Htt fibrils (peptide-fibril complex formation) [7] | binding of radiolabeled HD1 to Htt-fibrils on addition of synthetic peptide [8] | binding of radiolabeled HD8 to Htt-fibrils on addition of synthetic peptide [8] | fold less binding as compared with HD1 and HD8 [9] [fold] | labeling of retinal sections [10] | labeling of retinal sections [10, 13] | labeling of brain sections [11] | labeling of brain sections [11, 13] | labeling of Httex1Q72 aggregates [12] | labeling of Httex1Q72 aggregates [12, 13] | binding to Htt-fibrils in the presence of serum ([2]; serum diluted 1:2, 1:5 or 1:10 with buffer (TBST))
1 | MWQMMNGMSQ [HD8] | little to no binding to beads without target; also recorded: little to no binding; also recorded: low binding to beads without target | good binding to Htt-fibrils; also recorded: bind to Htt-fibrils; also recorded: show binding to Htt-fibrils | little to no binding | significant inhibition of fibril formation | little to no binding | significant colocalization | decrease in central line amplitude | reduced | similarly reduced | – | – | – | – | – | – | – | –
2 | QBP1 (peptide) | – | – | – | – | – | – | – | – | – | 10 | – | – | – | – | – | – | –
3 | HD8-HD1-fluorescein: HD8-HD1 labeled with fluorescein at its carboxyl terminus (MWQMMNGMSQGSGTSGSSGSMDWWPMWPSL-fluorescein) | – | – | – | – | – | – | – | – | – | – | Robust signal from the peptide can be seen in the ganglion cell layer | enhanced reactivity of Httex1 aggregates in all retinal layers | abundant signal from R6/1 brain | labels Httex1 aggregates in brain section | strong labeling of the round cytoplasmic Httex1Q72 aggregates (arrows) and intranuclear aggregates | bound Httex1Q72 aggregates | –
4 | MDWWPMWPSL [HD1] | little to no binding to beads without target; also recorded: little to no binding | demonstrated binding to Htt-fibrils; also recorded: bind to Htt-fibrils; also recorded: show binding to Htt-fibrils | little to no binding | significant inhibition of fibril formation | little to no binding | significant colocalization | decrease in central line amplitude | reduced | similarly reduced | – | – | – | – | – | – | – | serum partially inhibits the binding
